Experimental data reported in PMC10526274, “Epithelial-Immune Cell Crosstalk Determines the Activation of Immune Cells In Vitro by the Human Cathelicidin LL-37 at Low Physiological Concentrations” (Biomolecules, 2023).
Where “and” joins values, the source holds several entries; their conditions need not be identical. Identical values can stand only once.

Test system: Caco-2/NKT cell co-culture
Assay: Multiplex xMAP cytokine levels, Caco-2/NKT co-culture stimulated with LL-37
Assay type: cell-based, human
Details: NKT/Caco-2 co-culture, 1 µM LL-37, 24 h, n=2
Protocol: Caco-2 cell line (ATCC HTB-37) was cultured in a humidified CO2-incubator (5% CO2, 37 °C) in the complete DMEM/F12 (1:1) medium (Gibco, Waltham, MA, USA) containing 10% fetal bovine serum (FBS, Gibco) and 1X antibiotic–antimycotic solution (Gibco). To stabilize the cell phenotype, Caco-2 cells have been subcultivated three times before seeding on the filter supports. Then, Caco-2 cells were seeded at a density of 2 × 10^5 cells/cm^2 onto 24-well Millicell cell culture inserts (PC, 0.4-μm pore size, 0.6 cm^2 surface area, cat. #PIHP01250) (Millipore, Burlington, MA, USA), precoated with 0.2% bovine gelatin (Sigma-Aldrich, Saint Louis, MO, USA). After seeding, Caco-2 cells were grown in the same complete medium with re-feeding every 2–3 days until polarization of the monolayer occurred. The functional polarity of the monolayers was developed when transepithelial electrical resistance (TEER) between the apical and basolateral surfaces of the monolayers reached […] as measured by the electrical resistance system Millicell-ERS Voltohmmeter (Millipore, Burlington, MA, USA). Grown cell monolayers were used in transport and cytokine production experiments between the 21st and 29th days.
NKT cells (CD3^+CD56^+) were isolated from PBMCs using the FACSVantageDiVa cell sorter (Becton Dickinson, Franklin Lakes, NJ, USA), equipped with 405, 488, and 643 nm lasers (Supporting Materials, Figure S1). PBMCs were re-suspended in the FACS buffer (PBS containing 0.5% BSA and 2 mM EDTA) and labeled with monoclonal mouse anti-human CD3-APC (clone UCHT1, Beckman Coulter, Pasadena, CA, USA) and mouse anti-human CD56-PE/Cy7 (clone N901, Beckman Coulter) antibodies to isolate NKT cells (CD3^+CD56^+).
Sorted NKT cells were expanded by stimulation with Dynabead Human T-Expander CD3/CD28 magnetic beads (Gibco) in RPMI-1640 medium containing 10% FBS, 1X antibiotic–antimycotic solution, 100 U/mL IL-2 (Gibco), and 50 ng/mL IL-7 (Sci-Store). CD3/CD28 magnetic beads were subsequently removed with a magnet. Expanded NKT cells were washed out of the cytokines and cryopreserved.
Primary blood monocytes, moDCs, and NKT cells were seeded in 600 µL of complete RPMI-1640 with 10% Human AB serum (Capricorn Scientific, Ebsdorfergrund, Germany) and supplemented with 1X antibiotic–antimycotic solution into the wells of 24-well plates at a density of 3–7 × 10^5 cells/well 24 h before the experiment. Then, 24 h later, the medium in each well was replaced by the same medium with 1 µM of LL-37 for the sample wells or fresh medium alone for the control wells, and the permeable inserts with the Caco-2 monolayer with TEER > 400 Ω × cm^2, containing 400 μL of the complete medium in their apical chamber, were immediately placed into the appropriate wells. Also, inserts with the Caco-2 monolayer were placed in cell-free wells of 24-well plates in the same complete RPMI-1640 medium with or without 1 µM of LL-37 as controls. Cells were kept in a CO2-incubator (5% CO2, 37 °C) for another 24 h. Then, culture medium from each well was collected, centrifuged, and frozen at −70 °C.
To quantitatively evaluate a broad spectrum of analytes secreted by human cell cultures at the protein level, multiplex xMAP technology was used. […]

“LL-37: the only human cathelicidin, host defense antimicrobial peptide of 37 a.a. residues, produced by solid-phase peptide synthesis” gave an IL-18 level (control 0.74) of 0.52 pg/mL, an MDC level (control 1.37) of 0.58 pg/mL and an IL-2 level (control 1.49) of 1.16 pg/mL. The IL-6 level (control 1.7) was 1.09 pg/mL, the FLT-3L level (control 2.11) was 1.96 pg/mL and the IL-8 level (control 3.74) was 5.93 pg/mL. For the same substance, the IFNa2 level (control 4) was <3.88↓ pg/ml, the IL-4 level (control 4.85) was 6.05 pg/mL and the IL-9 level (control 5.8) was 5.8 pg/mL. It also gave an IFNg level (control 6.08) of 5.17 pg/mL, an MCP-3 level (control 7.84) of 7.84 pg/mL and an IL-1a level (control 9.17) of 10.05 pg/mL. For the same substance, the TNFb level (control 12.53) was 16.33 pg/mL, the TNFa level (control 15.69) was 16.61 pg/mL and the sCD40L level (control 23.6) was 23.6 pg/mL. For the same substance, the IL-22 level (control 27.2, p = 0.093) was 34 pg/mL and 34.37 pg/mL, the PDGF-AB/BB level (control 29.35) was 41.49 pg/mL and the GROa level (control 30.74) was 50.06 pg/mL. The FGF-2 level (control 35.81) was 41.88 pg/mL, the IL-27 level (control 35.81) was 51.37 pg/mL and the MIP-1b level (control 36.43) was 42.84 pg/mL. For the same substance, the MIG level (control 53.25) was 70 pg/mL, the M-GSF level (control 55.64) was 47.83 pg/mL and the GM-CSF level (control 69.7) was 65.72 pg/mL. The IP-10 level (control 141.7) was 206.59 pg/mL, the IL-13 level (control 179.71) was 178.25 pg/mL and the PDGF-AA level (control 200.08) was 182.58 pg/mL. The IL-5 level (control 246.49) was 258.81 pg/mL, the MIP-1a level (control 399.48) was 471.29 pg/mL and the RANTES level (control 718.58) was 908.6 pg/mL. The VEGFa level (control 951.17) was 1907 pg/mL, the IL-7 level (control <0.30) was <0.30↓ pg/ml and the IL-3 level (control <0.55) was <0.55↓ pg/ml. For the same substance, the TGF-a level (control <0.68) was <0.68↓ pg/ml, the IL-17A level (control <0.70) was <0.70↓ pg/ml and the IL-1b level (control <0.74) was <0.74↓ pg/ml. The IL-1RA level (control <0.93) was <0.93↓ pg/ml, the IL-10 level (control <1.35) was <1.35↓ pg/ml and the MCP-1 level (control <1.35) was 2.13 pg/mL. The IL-15 level (control <1.54) was <1.54↓ pg/ml, the EGF level (control <1.60) was 2.26 pg/mL and the “IL-12 (p70) level” value (control <1.71) was <1.71↓ pg/ml. For the same substance, the G-CSF level (control <2.32) was <2.32↓ pg/ml, the Eotaxin level (control <2.91) was <2.91↓ pg/ml and the “IL-12 (p40) level” value (control <3.33) was <3.33↓ pg/ml. The IL-17F level (control <12.19) was <12.19↓ pg/ml, the Fractalkine level (control <18.09) was 19.78 pg/mL and the IL-17E/IL-25 level (control <19.43) was <19.43↓ pg/ml.
